Here are results for one compound from ChEMBL document CHEMBL3769336, “Discovery of a Chemical Tool Inhibitor Targeting the Bromodomains of TRIM24 and BRPF” (J Med Chem, 2016).

In one assay the test system is MCF7. Description: Cytotoxicity against human MCF7 cells at 5x10'-5 M to 8x10'-8 M after 72 hrs by CellTiter-Glo assay. In kind it is functional, cell-based.
For the next assay, the system named is JJN-3. Kind of assay: Cytotoxicity against human JJN-3 cells at 5x10'-5 M to 8x10'-8 M after 72 hrs by CellTiter-Glo assay. In kind it is functional, cell-based.
The target in assay [1] is T1, Transcription intermediary factor 1-alpha (Homo sapiens, UniProt O15164).
T1 sequence (O15164 whole entry): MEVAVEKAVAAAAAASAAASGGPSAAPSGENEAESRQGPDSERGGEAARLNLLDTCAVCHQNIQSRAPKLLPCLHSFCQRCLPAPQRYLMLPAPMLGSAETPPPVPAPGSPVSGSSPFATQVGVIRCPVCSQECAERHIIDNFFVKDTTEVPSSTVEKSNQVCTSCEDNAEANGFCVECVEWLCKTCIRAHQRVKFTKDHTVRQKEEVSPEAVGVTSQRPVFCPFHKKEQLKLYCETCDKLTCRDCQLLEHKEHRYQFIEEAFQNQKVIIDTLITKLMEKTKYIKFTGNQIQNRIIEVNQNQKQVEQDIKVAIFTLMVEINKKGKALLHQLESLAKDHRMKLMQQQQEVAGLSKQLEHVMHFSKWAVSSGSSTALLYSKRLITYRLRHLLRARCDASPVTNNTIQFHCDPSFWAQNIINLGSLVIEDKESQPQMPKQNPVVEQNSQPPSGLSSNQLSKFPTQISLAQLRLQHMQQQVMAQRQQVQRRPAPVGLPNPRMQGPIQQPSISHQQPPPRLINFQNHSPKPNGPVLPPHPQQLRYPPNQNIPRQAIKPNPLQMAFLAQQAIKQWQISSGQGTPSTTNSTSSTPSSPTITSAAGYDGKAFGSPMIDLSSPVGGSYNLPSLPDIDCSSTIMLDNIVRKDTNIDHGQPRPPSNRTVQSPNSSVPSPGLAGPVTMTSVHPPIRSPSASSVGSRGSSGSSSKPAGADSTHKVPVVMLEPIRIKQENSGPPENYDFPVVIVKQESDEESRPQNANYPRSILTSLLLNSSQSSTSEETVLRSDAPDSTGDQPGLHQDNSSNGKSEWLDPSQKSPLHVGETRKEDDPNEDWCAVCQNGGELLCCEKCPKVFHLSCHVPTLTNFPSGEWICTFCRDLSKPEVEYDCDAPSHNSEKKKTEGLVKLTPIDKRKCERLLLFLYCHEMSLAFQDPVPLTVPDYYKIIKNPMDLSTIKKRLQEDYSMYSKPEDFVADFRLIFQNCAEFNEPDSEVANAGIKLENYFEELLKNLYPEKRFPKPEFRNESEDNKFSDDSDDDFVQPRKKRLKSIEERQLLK
Kind of assay: Inhibition of N-terminal His6-SUMO-1-tagged recombinant human TRIM24 bromodomain expressed in Escherichia coli BL21(DE3)-R3-pRARE2 cells by Alpha Screen assay. Background: Bead proximity is the source of the signal in Alpha formats.

The target in a further assay is T2, Peregrin (Homo sapiens, UniProt P55201).
T2 sequence (P55201 whole entry): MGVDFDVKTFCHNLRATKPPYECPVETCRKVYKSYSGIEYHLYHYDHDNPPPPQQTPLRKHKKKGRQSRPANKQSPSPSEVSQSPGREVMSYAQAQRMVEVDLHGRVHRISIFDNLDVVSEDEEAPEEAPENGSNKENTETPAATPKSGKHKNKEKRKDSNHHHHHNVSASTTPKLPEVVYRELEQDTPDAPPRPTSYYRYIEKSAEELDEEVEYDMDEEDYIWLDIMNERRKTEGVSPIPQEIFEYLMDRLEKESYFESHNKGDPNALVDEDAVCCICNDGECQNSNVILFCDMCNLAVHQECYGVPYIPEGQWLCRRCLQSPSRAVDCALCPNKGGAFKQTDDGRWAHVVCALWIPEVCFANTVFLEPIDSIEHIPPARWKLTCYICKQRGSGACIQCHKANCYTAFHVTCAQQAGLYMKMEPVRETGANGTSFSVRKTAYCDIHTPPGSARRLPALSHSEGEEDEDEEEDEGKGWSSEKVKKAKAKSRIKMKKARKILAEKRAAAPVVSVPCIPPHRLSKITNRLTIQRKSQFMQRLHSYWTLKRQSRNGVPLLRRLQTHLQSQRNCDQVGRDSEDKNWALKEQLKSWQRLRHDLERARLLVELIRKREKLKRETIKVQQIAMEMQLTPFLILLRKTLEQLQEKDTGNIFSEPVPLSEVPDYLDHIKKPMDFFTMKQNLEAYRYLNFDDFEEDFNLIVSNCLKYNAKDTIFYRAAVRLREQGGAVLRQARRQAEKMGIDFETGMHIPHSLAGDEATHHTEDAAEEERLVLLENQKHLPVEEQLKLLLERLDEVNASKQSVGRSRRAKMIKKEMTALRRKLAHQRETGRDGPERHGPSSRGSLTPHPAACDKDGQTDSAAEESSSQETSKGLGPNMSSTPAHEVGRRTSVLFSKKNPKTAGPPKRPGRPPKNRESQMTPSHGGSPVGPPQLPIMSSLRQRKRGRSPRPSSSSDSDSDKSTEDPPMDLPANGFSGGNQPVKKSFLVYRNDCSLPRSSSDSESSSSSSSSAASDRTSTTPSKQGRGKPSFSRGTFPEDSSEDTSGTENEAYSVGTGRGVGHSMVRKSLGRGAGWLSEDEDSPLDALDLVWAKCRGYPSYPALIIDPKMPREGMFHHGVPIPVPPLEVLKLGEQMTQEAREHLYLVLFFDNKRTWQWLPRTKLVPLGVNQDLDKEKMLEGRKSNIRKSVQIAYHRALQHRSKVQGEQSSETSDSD
Kind of assay: Binding affinity to BRPF1B (unknown origin) by isothermal titration calorimetry.

In another assay the test system is RCH-ACV. Description: Cytotoxicity against human RCH-ACV cells at 5x10'-5 M to 8x10'-8 M after 72 hrs by CellTiter-Glo assay. In kind it is functional, cell-based. (In general: Cellular ATP, detected with luciferase, serves as a proxy for viable cell number.)
The nature of assay [2]: Cytotoxicity against human MM1S cells after 72 hrs by CellTiter-Glo assay. In kind it is functional. As to conditions: MM1.S.

Active and inactive are the calls of the source. The calls are words filed in the database; no cut-off is given here.

For `COc1ccc(Oc2cc3c(cc2NS(=O)(=O)c2ccc(OC)c(OC)c2)n(C)c(=O)n3C)cc1`, the result with MCF7, in the assay on JJN-3 and with RCH-ACV was inactive. Besides, the IC50 (as a rule, the concentration at which inhibition is half-maximal) in assay [1] was found to be 430 nM. Further, at Peregrin, binding was put at a Kd of 137 nM. The GI50 (commonly the concentration at which growth is held to half of that of the control) in assay [2] is above 10000 nM.
